Source: ChEMBL document CHEMBL1157784, “Antitumor activity and COMPARE analysis of bis-indole derivatives” (Bioorg Med Chem, 2010)
Calls of active or inactive are those of the source. No cut-off for these calls is given here.

Columns and labels:
[1] = Growth inhibition of human breast cancer cell by NCI-CLS assay; format: functional; conditions: Cancer cell lines; for CC50: read-out: LC50 (the source's name)
[2] = Acute toxicity in athymic nude Swiss mouse administered as single dose; format: organism-based; conditions: in vivo
[3] = Antiproliferative activity against human B1647 cells after 2 days by MTT assay; format: functional, cell-based; conditions: B1647, 48 h
[4] = Growth inhibition of human renal cancer cell by NCI-CLS assay; format: functional; conditions: Cancer cell lines; for CC50: read-out: LC50 (the source's name)
[5] = Growth inhibition of human ovarian cancer cell by NCI-CLS assay; format: functional; conditions: Cancer cell lines; for CC50: read-out: LC50 (the source's name)
[6] = molecular target: NAD(P)H dehydrogenase [quinone] 1 (Homo sapiens) (UniProt P15559); assay: Induction of NQO1 activity in HUVEC at 5 uM after 24 to 48 hrs by fluorescence plate reader
Sequence of NAD(P)H dehydrogenase [quinone] 1 (Homo sapiens) (P15559 whole entry): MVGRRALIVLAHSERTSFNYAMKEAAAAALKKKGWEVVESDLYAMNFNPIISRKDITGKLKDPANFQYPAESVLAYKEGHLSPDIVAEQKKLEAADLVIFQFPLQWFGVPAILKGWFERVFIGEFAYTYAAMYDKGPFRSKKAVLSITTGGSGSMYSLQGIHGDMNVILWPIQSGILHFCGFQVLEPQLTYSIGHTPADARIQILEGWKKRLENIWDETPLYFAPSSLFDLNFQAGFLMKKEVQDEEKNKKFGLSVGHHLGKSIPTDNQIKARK

[7] = Growth inhibition of human leukemia cell by NCI-CLS assay; format: functional
[8] = tested on: HUVEC; assay: Cytotoxicity against HUVEC after 2 days by MTT assay; format: cell-based; conditions: Homo sapiens, 48 h
[9] = Growth inhibition of human melanoma cell by NCI-CLS assay; format: functional; conditions: for CC50: read-out: LC50 (the source's name)
[10] = Antiproliferative activity against human M07e cells after 2 days by MTT assay; format: functional, cell-based; conditions: M-07e, 48 h
[11] = Growth inhibition of human prostate cancer cell by NCI-CLS assay; format: functional; conditions: Cancer cell lines; for CC50: read-out: LC50 (the source's name)
[12] = Growth inhibition of human colon cancer cell by NCI-CLS assay; format: functional; conditions: Cancer cell lines
[13] = tested on: HEL; assay: Antiproliferative activity against human HEL cells after 2 days by MTT assay; format: functional, cell-based; conditions: 48 h
[14] = Growth inhibition of human CNS cancer cell by NCI-CLS assay; format: functional; conditions: Cancer cell lines; for CC50: read-out: LC50 (the source's name)
[15] = tested on: NSCLC; assay: Growth inhibition of human NSCLC cell by NCI-CLS assay; format: functional

Row | Compound | GI50 [1] | TGI [1] | CC50 [1] | GI50 [4] | TGI [4] | CC50 [4] | GI50 [5] | TGI [5] | CC50 [5] | Activity [6] | GI50 [7] | TGI [7] | GI50 [9] | TGI [9] | CC50 [9] | GI50 [11] | TGI [11] | CC50 [11] | GI50 [12] | LC50 [12] | other results
1 | COc1cc2c(c(OC)c1OC)/C(=C\c1cccc(/C=C3/C(=O)Nc4cc(OC)c(OC)c(OC)c43)n1)C(=O)N2 | 200 nM | 1500 nM | 24600 nM | 300 nM | 700 nM | 4500 nM | 300 nM | 800 nM | 5700 nM | Active | 200 nM | 2800 nM | 200 nM | 500 nM | 2700 nM | 300 nM | 1000 nM | 16600 nM | 200 nM | 7200 nM | MTD [2]: 100 mg/kg; IC50 [3]: 1000 nM; LC50 [7]: 67600 nM; IC50 [8]: < 5000 nM; IC50 [10]: 1000 nM; TGI [12]: 500 nM; IC50 [13]: 1000 nM; GI50 [14]: 300 nM; TGI [14]: 800 nM; CC50 [14]: 3200 nM; GI50 [15]: 300 nM; LC50 [15]: 33100 nM; TGI [15]: 1500 nM
2 | C[S+]([O-])CCCCN=C=S (configuration not stated) | – | – | – | – | – | – | – | – | – | Active | – | – | – | – | – | – | – | – | – | – | –
3 | O=C1Nc2cc(OC(F)(F)F)ccc2/C1=C\c1cccc(/C=C2/C(=O)Nc3cc(OC(F)(F)F)ccc32)n1 | 300 nM | 2000 nM | 15800 nM | 300 nM | 700 nM | 2900 nM | 400 nM | 2500 nM | 12300 nM | Active | 200 nM | 8900 nM | 400 nM | 1100 nM | 5700 nM | 100 nM | 300 nM | 3200 nM | 200 nM | 2000 nM | IC50 [3]: 3000 nM; IC50 [8]: < 5000 nM; IC50 [10]: 3000 nM; TGI [12]: 500 nM; IC50 [13]: 3000 nM; GI50 [14]: 300 nM; TGI [14]: 800 nM; CC50 [14]: 2600 nM; GI50 [15]: 400 nM; LC50 [15]: 15500 nM; TGI [15]: 1900 nM
4 | O=C1Nc2cccc(Cl)c2/C1=C\c1cccc(/C=C2/C(=O)Nc3cccc(Cl)c32)c1 | 2400 nM | 13200 nM | 42700 nM | 2300 nM | 9300 nM | 36300 nM | 2700 nM | 14400 nM | 41700 nM | – | 1300 nM | 9800 nM | 3200 nM | 16600 nM | 34700 nM | 1500 nM | 16200 nM | 50100 nM | 2600 nM | 33100 nM | LC50 [7]: 27500 nM; TGI [12]: 14800 nM; GI50 [14]: 1700 nM; TGI [14]: 13500 nM; CC50 [14]: 38900 nM; GI50 [15]: 4200 nM; LC50 [15]: 42700 nM; TGI [15]: 20400 nM
